Assay results as given in patent US9708247B2, “Modulators of the eIF2alpha pathway” (The Regents of the University of California, priority 2013, dated 2017).
Entries after “also recorded” stand apart in the source; their conditions may differ.

Key:
Toxicity in mice = type: in vivo
eIF2α (p-Ser51) = experiment: AlphaScreen SureFire eIF2α(p-Ser51) assay in U2OS cells; type: cell-based, human; settings: U2OS
Procedure: U2OS cells were plated on 96 well plates and left to recover overnight. Cells were treated with either with 2 μg/ml tunicamycin or 100 nM thapsigargin in the presence or absence of 100 nM ISRIB or with ISRIB alone for the indicated and the level of eIF2α phosphorylation was determined using the AlphaScreen SureFire eIF2α(p-Ser51) Assay kit (Perkin Elmer) following the manufacturer's recommendations. Plates were read in an Envision Xcite Multilabel Reader using the standard Alpha Screen settings.

RPMI 8226 cells = experiment: Multiple myeloma xenograft model (RPMI 8226, BALB/c scid mice); type: in vivo, mouse; settings: 5 mg/kg orally, daily
CHOP = CHOP immunofluorescence in U2OS cells; type: cell-based, human; settings: 100 nM thapsigargin 2 h, 200 nM ISRIB
Procedure: FIGS. 4A-4B. ISRIB impairs induction of the transcriptional network controlled by ATF4; (FIG. 4A) ER-stress dependent induction of CHOP and GADD34 mRNA is impaired in cells treated with ISRIB; qPCR analysis of total RNA extracted from U2OS cells treated with 2 μg/ml of tunicamycin in the presence or absence of 200 nM ISRIB for the indicated times; mRNA levels for each sample were normalized to GAPDH (N=4); P values are derived from a one tail Student's t-test for unpaired samples; statistical significance: CHOP, P=0.0006 (*); GADD34, P=0.0008 (*); (FIG. 4B) ISRIB blocks CHOP production during ER stress; an immunofluorescence analysis of U2OS cells treated with 100 nM thapsigargin for 2 h in the presence or absence of 200 nM ISRIB is shown; a secondary Alexa Dye 488 anti-mouse antibody and rhodamine-phalloidin were used to visualize CHOP and actin, respectively.
U2OS cells were seeded on Slide Flasks (Thermo Scientific) 18 h prior to processing for immunofluorescence. Cells (60% confluent) were fixed with 4% paraformaldehyde in PBS for 15 min. The cells were then rinsed 3 times with PBS and permeabilized with 0.3% Triton X-100. The fixed cells were rinsed 3 times with PBS and blocked for 1 h at room temperature in PBS supplemented with 0.1% Triton X-100 and 5% normal goat serum. […]

[1] = mouse, in vivo, ip, 5 mg/kg
Procedure: Intra-peritoneal (ip), and intra-venous (iv) routes of administration were performed on 6-7 wk old female CD-1 mice (Harlan Laboratories). Animals received a single, 5 mg/kg dose in groups of three mice/compound/route of administration. […] Blood (80 ul) was collected from the saphenous vein at intervals post-dosing (20 min, 1 h, 3 h, 8 h, 24 h) in EDTA containing collection tubes (Sarstadt CB300) and plasma was prepared for analysis. Compounds were detected by time-of-flight mass spectroscopy.

[2] = system: rabbit reticulocyte in vitro translation system; experiment: Rabbit reticulocyte in vitro translation assay (luciferase mRNA); type: biochemical; settings: rabbit reticulocyte lysate
Procedure: FIG. 24. ISRIB enhances production of luciferase in a rabbit reticulocyte in vitro translation assay; luciferase mRNA was added to the lysates in the presence or absence of different concentrations of ISRIB; the amount of luciferase protein produced was quantitated by addition of One-Glo and the Relative luminescent units were normalized to no-addition control.

[3] = system: PERK signaling (ATF4, PERK, XBP1s); experiment: Immunoblot analysis of PERK, ATF4 and XBP1s in HEK293T cells; type: cell-based, human
Procedure: Cells were lysed in SDS-PAGE loading buffer (1% SDS, 62.5 mM Tris-HCl pH 6.8, 10% glycerol). Lysates were sonicated and equal amounts were loaded on SDS-PAGE gels (BioRad). Proteins were transferred onto nitrocellulose and probed with primary antibodies diluted in Tris-buffered saline supplemented with 0.1% Tween 20 and 5% bovine serum albumin. The following antibodies were used: CREB-2 (C-20) (1:800) (Santa Cruz Biotechnologies); PERK (D11A8) (1:1000), PERK (C33E10) (1:1000), eIF2α (9722) (1:1000), phospho-eIF2α (Ser51) (D9G8) XP (3398) (1:1000) (Cell Signaling Technology); XBP1s (C-terminus) (1:500) (BioLegend); M2 Flag (1:1000) (Sigma). An HRP-conjugated secondary antibody (Amersham) was employed to detect immune-reactive bands using enhanced chemiluminescence (SuperSignal, Thermo Scientific).

[4] = system: hippocampal-dependent memory; experiment: Trace fear conditioning after surgery (postsurgical cognitive dysfunction); type: in vivo, mouse; settings: mice, perioperative administration, postoperative day three
Source text: FIG. 26. Experimental design for measuring postsurgical cognitive dysfunction and effects of ISRIB on cognitive function; measurement of memory is a behavioral test using trace fear conditioning (TFC), which aims to establish a permanent memory in animals by using sensorial information; associative learning is presented with a neutral conditioning stimulus, paired with an aversive unconditioning stimulus (e.g. shock); freezing by the animal corresponds to the ability of the animal to retain memory from the context in which it has been trained. Separate cohorts of animals were used to assess inflammatory status 24 h after surgery. Downwards arrows represent injection points. FIG. 27. […] Control animals were given vehicle solution.

RPMI8226 cells = experiment: Polysome gradient analysis in RPMI8226 cells; type: cell-based, human; settings: ER-stressed (5 μg/ml tunicamycin) and un-stressed cells, 1 μM ISRIB

Q: What does the source list for O=C(COc1ccc(Cl)cc1)NC1CCC(NC(=O)COc2ccc(Cl)cc2)CC1 (stereo not drawn) [ISRIB]?
A: toxicity (Toxicity in mice): no overt toxicity; effect on eIF2α phosphorylation, compound alone (eIF2α (p-Ser51); no ER stress, 120 min): no effect on eIF2α phosphorylation; effect on eIF2α phosphorylation upon ER stress (eIF2α (p-Ser51); tunicamycin or thapsigargin plus 100 nM ISRIB): did not block eIF2α phosphorylation; tumor growth / tumor size vs vehicle (in words) (RPMI 8226 cells): significant difference in tumor size; also recorded: significant reduction in the rate of tumor growth; reduction in tumor size at the endpoint of the study (RPMI 8226 cells; 26 days of dosing): 50%; CHOP accumulation after induction of ER stress (CHOP): no CHOP accumulation; AUC [1]: 3318 ng·h/mL; CLt [1]: 8.318 mL/h; F % [1]: 13.8%; T½ [1]: 8.43 h; Vd [1]: 96.0261 mL; translation of exogenously added mRNA [2]: enhances translation; XBP1 mRNA splicing and XBP1s production (IRE1 branch) ([3]; ER stress plus 200 nM ISRIB): persisted; PERK phosphorylation (mobility shift) ([3]; ER-stressed HEK293T, 200 nM ISRIB): did not inhibit the mobility shift of PERK; ATF4 induction after GCN2 or HRI activation ([3]; HEK293T, cysteine/methionine starvation or HRI activator 6 μM, 5 h, 200 nM ISRIB): blocked ATF4 induction; production of endogenous ATF4 upon ER stress ([3]; HEK293T, tunicamycin or thapsigargin, 200 nM ISRIB, 3 h): blocked production of endogenous ATF4; memory impairment after surgery (freezing) [4]: mitigated memory impairment after surgery; translation in multiple myeloma cells (RPMI8226 cells): increased translation
